Among the data in US20240246964A1 (Arbutus Biopharma Corporation, priority 2021, published 2024) are EC50 values, retold here.

In general, EC50 refers to the midpoint of the concentration-response curve. A high value points to lower potency in that assay.

This assay deals with human PD-L1 (Homo sapiens (Human), UniProt Q9NZQ7). The assay can be described thus: T cell activation luciferase reporter cell culture system (T Cell Activation Assay). The note with it: luciferase reporter assay; PD-L1 aAPC/CHO-K1 cells with PD-1 effector Jurkat T cells. The assay is classed as cell-based. Background: A reporter such as luciferase makes a cellular process visible.

SMILES strings stand for the structures. “And” between values parts separate entries of the source, which are not always exact repeats. Identical values can stand only once.

Sequence of human PD-L1 (Q9NZQ7 19-290): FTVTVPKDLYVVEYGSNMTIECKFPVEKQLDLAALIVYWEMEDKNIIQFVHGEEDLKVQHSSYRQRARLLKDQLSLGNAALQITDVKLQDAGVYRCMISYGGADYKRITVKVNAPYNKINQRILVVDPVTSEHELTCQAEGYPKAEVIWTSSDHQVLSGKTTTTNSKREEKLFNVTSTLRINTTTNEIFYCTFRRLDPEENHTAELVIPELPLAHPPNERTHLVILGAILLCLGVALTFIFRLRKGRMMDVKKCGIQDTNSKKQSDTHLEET

As to `COc1cc(-c2nccc(-c3cccc(-c4ccc(CNC[C@@H]5CCC(=O)N5)c(OC)n4)c3Cl)c2Cl)cc2c1CCN(C[C@H](C)O)C2` [Cmpd 44, (S)-5-((((6-(2-chloro-3-(3-chloro-2-(2-((S)-2-hydroxypropyl)-5-methoxy-1,2,3,4-tetrahydroisoquinolin-7-yl)pyridin-4-yl)phenyl)-2-methoxypyridin-3-yl)methyl)amino)methyl)pyrrolidin-2-one], a half-maximal response (EC50) required 54.1 nM.

`COc1cc(-c2nccc(-c3cccc(-c4ccc(CNC[C@@H]5CCC(=O)N5)c(OC)n4)c3Cl)c2Cl)cc2c1CCN(CC(C)(C)O)C2` [Cmpd 45, (S)-5-((((6-(2-chloro-3-(3-chloro-2-(2-(2-hydroxy-2-methylpropyl)-5-methoxy-1,2,3,4-tetrahydroisoquinolin-7-yl)pyridin-4-yl)phenyl)-2-methoxypyridin-3-yl)methyl)amino)methyl)pyrrolidin-2-one] had an EC50 of 892 nM. This EC50 lies about 16-fold higher than the previous one.

As to `COc1nc(-c2cccc(-c3ccnc(-c4cc(F)c5c(c4)CCN(CC(C)(C)O)C5)c3Cl)c2Cl)ccc1CNC[C@@H]1CCC(=O)N1` [Cmpd 46, (S)-5-((((6-(2-chloro-3-(3-chloro-2-(8-fluoro-2-(2-hydroxy-2-methylpropyl)-1,2,3,4-tetrahydroisoquinolin-6-yl)pyridin-4-yl)phenyl)-2-methoxypyridin-3-yl)methyl)amino)methyl)pyrrolidin-2-one], the EC50 was found to be 171 nM.

In turn, `COc1nc(-c2cccc(-c3ccnc(-c4cc(F)c5c(c4)CN(CC(C)(C)O)CC5)c3Cl)c2Cl)ccc1CNC[C@@H]1CCC(=O)N1` [Cmpd 47, (S)-5-((((6-(2-chloro-3-(3-chloro-2-(5-fluoro-2-(2-hydroxy-2-methylpropyl)-1,2,3,4-tetrahydroisoquinolin-7-yl)pyridin-4-yl)phenyl)-2-methoxypyridin-3-yl)methyl)amino)methyl)pyrrolidin-2-one] showed an EC50 of 10000 nM.

As to `COc1cc(-c2nccc(-c3cccc(-c4ccc(CNC[C@@H]5CCC(=O)N5)c(OC)n4)c3Cl)c2Cl)cc2c1CN(CCC(C)(C)O)CC2` [Cmpd 49, (S)-5-((((6-(2-chloro-3-(3-chloro-2-(2-(3-hydroxy-3-methylbutyl)-8-methoxy-1,2,3,4-tetrahydroisoquinolin-6-yl)pyridin-4-yl)phenyl)-2-methoxypyridin-3-yl)methyl)amino)methyl)pyrrolidin-2-one], a half-maximal effect (EC50) was put at 37 nM. This EC50 lies about 270-fold lower than the previous one.

Turning to `COc1cc(-c2nccc(-c3cccc(-c4ccc(CNC[C@@H]5CCC(=O)N5)c(OC)n4)c3Cl)c2Cl)cc2c1CN(C[C@H](C)O)CC2` [Cmpd 50, (S)-5-((((6-(2-chloro-3-(3-chloro-2-(2-((S)-2-hydroxypropyl)-8-methoxy-1,2,3,4-tetrahydroisoquinolin-6-yl)pyridin-4-yl)phenyl)-2-methoxypyridin-3-yl)methyl)amino)methyl)pyrrolidin-2-one], the EC50 was 29.1 nM.

Consider `COc1cc(-c2nccc(-c3cccc(-c4ccc(CNC[C@@H]5CCC(=O)N5)c(OC)n4)c3Cl)c2Cl)cc2c1CN(CCC1(O)CCC1)CC2` [Cmpd 51, (S)-5-((((6-(2-chloro-3-(3-chloro-2-(2-(2-(1-hydroxycyclobutyl)ethyl)-8-methoxy-1,2,3,4-tetrahydroisoquinolin-6-yl)pyridin-4-yl)phenyl)-2-methoxypyridin-3-yl)methyl)amino)methyl)pyrrolidin-2-one], for which the EC50 came to 74.5 nM.

`COc1cc(-c2nccc(-c3cccc(-c4ccc(CNC[C@@H]5CCC(=O)N5)c(OC)n4)c3Cl)c2Cl)cc2c1CN(CC(O)C(C)C)CC2` (stereo partly drawn) [Cmpd 53, (5S)-5-((((6-(2-chloro-3-(3-chloro-2-(2-(2-hydroxy-3-methylbutyl)-8-methoxy-1,2,3,4-tetrahydroisoquinolin-6-yl)pyridin-4-yl)phenyl)-2-methoxypyridin-3-yl)methyl)amino)methyl)pyrrolidin-2-one] gave an EC50 of 399 nM. Compared with the last compound, the EC50 is about 5.4-fold higher.

On to `COc1cc(-c2nccc(-c3cccc(-c4ccc(CNC[C@@H]5CCC(=O)N5)c(OC)n4)c3Cl)c2Cl)cc2c1CN(CCO)CC2` [Cmpd 54, (S)-5-((((6-(2-chloro-3-(3-chloro-2-(2-(2-hydroxyethyl)-8-methoxy-1,2,3,4-tetrahydroisoquinolin-6-yl)pyridin-4-yl)phenyl)-2-methoxypyridin-3-yl)methyl)amino)methyl)pyrrolidin-2-one], for which the EC50 was 24.3 nM and 21.5 nM.

In the case of `COc1cc(-c2nccc(-c3cccc(-c4ccc5c(CNC6CCN(C(C)=O)CC6)cn(C)c5n4)c3Cl)c2Cl)ccc1CNC[C@@H]1CCC(=O)N1` [Cmpd 57, (S)-5-(((4-(4-(3-(3-(((1-acetylpiperidin-4-yl)amino)methyl)-1-methyl-1H-pyrrolo[2,3-b]pyridin-6-yl)-2-chlorophenyl)-3-chloropyridin-2-yl)-2-methoxybenzyl)amino)methyl)pyrrolidin-2-one], the EC50 was determined as 19.8 nM.

In the case of `COc1cc(-c2nccc(-c3cccc(-c4ccc5c(CNC[C@@H]6CCO6)cn(C)c5n4)c3Cl)c2Cl)ccc1CNC[C@@H]1CCC(=O)N1` [Cmpd 58, (S)-5-(((4-(3-chloro-4-(2-chloro-3-(1-methyl-3-(((((S)-oxetan-2-yl)methyl)amino)methyl)-1H-pyrrolo[2,3-b]pyridin-6-yl)phenyl)pyridin-2-yl)-2-methoxybenzyl)amino)methyl)pyrrolidin-2-one], the EC50 came to 37.3 nM.

`COc1cc(-c2nccc(-c3cccc(-c4ccc5c(CNC6CCOCC6)cn(C)c5n4)c3Cl)c2Cl)ccc1CNC[C@@H]1CCC(=O)N1` [Cmpd 59, (S)-5-(((4-(3-chloro-4-(2-chloro-3-(1-methyl-3-(((tetrahydro-2H-pyran-4-yl)amino)methyl)-1H-pyrrolo[2,3-b]pyridin-6-yl)phenyl)pyridin-2-yl)-2-methoxybenzyl)amino)methyl)pyrrolidin-2-one] returned an EC50 of 50.8 nM. The EC50 values of the last two compounds are within 1.5-fold of each other.

In turn, `COc1cc(-c2nccc(-c3cccc(-c4ccc5c(CNC6CCS(=O)(=O)CC6)cn(C)c5n4)c3Cl)c2Cl)ccc1CNC[C@@H]1CCC(=O)N1` [Cmpd 60, (S)-5-(((4-(3-chloro-4-(2-chloro-3-(3-(((1,1-dioxidotetrahydro-2H-thiopyran-4-yl)amino)methyl)-1-methyl-1H-pyrrolo[2,3-b]pyridin-6-yl)phenyl)pyridin-2-yl)-2-methoxybenzyl)amino)methyl)pyrrolidin-2-one] had an EC50 of 44.6 nM.

Take `COc1nc(-c2cccc(-c3ccnc(-c4cc(F)c5c(c4)CCN(C[C@@H]4CCC(=O)N4)C5)c3Cl)c2Cl)ccc1CNC[C@@H]1CCC(=O)N1` [Cmpd 61, (S)-5-((((6-(2-chloro-3-(3-chloro-2-(8-fluoro-2-(((S)-5-oxopyrrolidin-2-yl)methyl)-1,2,3,4-tetrahydroisoquinolin-6-yl)pyridin-4-yl)phenyl)-2-methoxypyridin-3-yl)methyl)amino)methyl)pyrrolidin-2-one]: the concentration giving a half-maximal response (EC50) is 75.5 nM.

Compound `COc1cc(-c2nccc(-c3cccc(-c4ccc(CNC[C@@H]5CCC(=O)N5)c(OC)n4)c3Cl)c2Cl)cc2c1CN(CC1CCN(C(C)=O)CC1)CC2` [Cmpd 62, (S)-5-((((6-(3-(2-(2-((1-acetylpiperidin-4-yl)methyl)-8-methoxy-1,2,3,4-tetrahydroisoquinolin-6-yl)-3-chloropyridin-4-yl)-2-chlorophenyl)-2-methoxypyridin-3-yl)methyl)amino)methyl)pyrrolidin-2-one] yielded an EC50 of 27 nM.

On to `COc1cc(-c2nccc(-c3cccc(-c4ccc(CNC[C@@H]5CCC(=O)N5)c(OC)n4)c3Cl)c2Cl)cc2c1CN(CCCF)CC2` [Cmpd 63, (S)-5-((((6-(2-chloro-3-(3-chloro-2-(2-(3-fluoropropyl)-8-methoxy-1,2,3,4-tetrahydroisoquinolin-6-yl)pyridin-4-yl)phenyl)-2-methoxypyridin-3-yl)methyl)amino)methyl)pyrrolidin-2-one], for which the EC50 was 40.8 nM.

In turn, `COc1cc(-c2nccc(-c3cccc(-c4ccc(CNC[C@@H]5CCC(=O)N5)c(OC)n4)c3Cl)c2Cl)cc2c1CN(CCC1CCNCC1)CC2` [Cmpd 64, (S)-5-((((6-(2-chloro-3-(3-chloro-2-(8-methoxy-2-(2-(piperidin-4-yl)ethyl)-1,2,3,4-tetrahydroisoquinolin-6-yl)pyridin-4-yl)phenyl)-2-methoxypyridin-3-yl)methyl)amino)methyl)pyrrolidin-2-one] displayed a concentration giving a half-maximal response (EC50) of 71.9 nM.

Take `COc1nc(-c2cccc(-c3ccnc(-c4cc(F)c5c(c4)CCN(CCCF)C5)c3Cl)c2Cl)ccc1CNC[C@@H]1CCC(=O)N1` [Cmpd 65, (S)-5-((((6-(2-chloro-3-(3-chloro-2-(8-fluoro-2-(3-fluoropropyl)-1,2,3,4-tetrahydroisoquinolin-6-yl)pyridin-4-yl)phenyl)-2-methoxypyridin-3-yl)methyl)amino)methyl)pyrrolidin-2-one]: a half-maximal response (EC50) required 194 nM. Against the preceding compound, the EC50 is about 2.7-fold higher.

The compound `COc1nc(-c2cccc(-c3ccnc(-c4cc(Cl)c5c(c4)CCN(C[C@@H]4CCC(=O)N4)C5)c3Cl)c2Cl)ccc1CNC[C@@H]1CCC(=O)N1` [Cmpd 67, (S)-5-((((6-(2-chloro-3-(3-chloro-2-(8-chloro-2-(((S)-5-oxopyrrolidin-2-yl)methyl)-1,2,3,4-tetrahydroisoquinolin-6-yl)pyridin-4-yl)phenyl)-2-methoxypyridin-3-yl)methyl)amino)methyl)pyrrolidin-2-one] showed an EC50 of 101 nM.

Compound `COc1cc(-c2nccc(-c3cccc(-c4ccc(CNC[C@@H]5CCC(=O)N5)c(OC)n4)c3Cl)c2Cl)ccc1CN1CCC[C@H]1C(=O)OC(C)C` [Cmpd 68, isopropyl (4-(3-chloro-4-(2-chloro-3-(6-methoxy-5-(((((S)-5-oxopyrrolidin-2-yl)methyl)amino)methyl)pyridin-2-yl)phenyl)pyridin-2-yl)-2-methoxybenzyl)-L-prolinate] had an EC50 of 413 nM. This EC50 is about 4.1-fold higher than that of the compound before.

`COc1nc(-c2cccc(-c3ccnc(-c4cc(Cl)c5c(c4)CCN(C[C@H](C)O)C5)c3Cl)c2Cl)ccc1CNC[C@@H]1CCC(=O)N1` [Cmpd 69, (S)-5-((((6-(2-chloro-3-(3-chloro-2-(8-chloro-2-((S)-2-hydroxypropyl)-1,2,3,4-tetrahydroisoquinolin-6-yl)pyridin-4-yl)phenyl)-2-methoxypyridin-3-yl)methyl)amino)methyl)pyrrolidin-2-one] returned an EC50 of 56.6 nM.
